Test system: OVCAR-5 complex spheroids with HUVEC/MSC, viability, % test/control
Assay: Anticancer human tumor OVCAR-5 cell line growth inhibition [AhR];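 note: spheroids exposed to compounds for 7 days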;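 for viability, T/C: 100% = DMSO vehicle control wells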
Details: for IC50: curve of first compound; for viability, T/C: stronger effect = lower value
Method in brief: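 Complex tumor spheroids co-cultured with HUVEC and human MSC stroma; AhR antagonists tested in combination with standard-of-care and investigational agents. Top concentration at or near clinical Cmax (else 10 microM), half-log dilutions; growth expressed as percent test/control.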

[1] = second compound 0.1 µM, first compound 0.0316 µM
[2] = second compound 0.1 µM, first compound 0.1 µM
[3] = second compound 0.1 µM, first compound 0.316 µM
[4] = second compound 0.1 µM, first compound 1 µM
[5] = second compound 0.316 µM, first compound 0.0316 µM
[6] = second compound 0.316 µM, first compound 0.1 µM
[7] = second compound 0.316 µM, first compound 0.316 µM
[8] = second compound 0.316 µM, first compound 1 µM
[9] = second compound 1 µM, first compound 0.0316 µM
[10] = second compound 1 µM, first compound 0.1 µM
[11] = second compound 1 µM, first compound 0.316 µM
[12] = second compound 1 µM, first compound 1 µM
[13] = second compound 3.16 µM, first compound 0.0316 µM
[14] = second compound 3.16 µM, first compound 0.1 µM
[15] = second compound 3.16 µM, first compound 0.316 µM
[16] = second compound 3.16 µM, first compound 1 µM
[17] = second compound 10 µM, first compound 0.0316 µM
[18] = second compound 10 µM, first compound 0.1 µM
[19] = second compound 10 µM, first compound 0.316 µM
[20] = second compound 10 µM, first compound 1 µM

CC1COCCN1c1cc(-c2ccnn2C)c2ccnc(-c3ccn[nH]3)c2n1 (stereo not given) + Cc1ccccc1N=Nc1ccc(NC(=O)c2ccnn2C)c(C)c1
IC50 (second compound 0.1 µM): 244 nM
IC50 (second compound 0.316 µM): 253 nM
IC50 (second compound 1 µM): 284 nM
IC50 (second compound 3.16 µM): 269 nM
IC50 (second compound 10 µM): 272 nM
viability, T/C (second compound 0.1 µM, first compound 0.00316 µM): 102%
viability, T/C (second compound 0.1 µM, first compound 0.01 µM): 101%
viability, T/C [1]: 98.5%
viability, T/C [2]: 79.9%
viability, T/C [3]: 41.4%
viability, T/C [4]: 26.3%
viability, T/C (second compound 0.316 µM, first compound 0.00316 µM): 104%
viability, T/C (second compound 0.316 µM, first compound 0.01 µM): 105%
viability, T/C [5]: 101%
viability, T/C [6]: 81.1%
viability, T/C [7]: 42.5%
viability, T/C [8]: 28.2%
viability, T/C (second compound 1 µM, first compound 0.00316 µM): 108%
viability, T/C (second compound 1 µM, first compound 0.01 µM): 110%
viability, T/C [9]: 101%
viability, T/C [10]: 87.5%
viability, T/C [11]: 45.5%
viability, T/C [12]: 30.1%
viability, T/C (second compound 3.16 µM, first compound 0.00316 µM): 109%
viability, T/C (second compound 3.16 µM, first compound 0.01 µM): 109%
viability, T/C [13]: 105%
viability, T/C [14]: 88.6%
viability, T/C [15]: 43.4%
viability, T/C [16]: 32.5%
viability, T/C (second compound 10 µM, first compound 0.00316 µM): 105%
viability, T/C (second compound 10 µM, first compound 0.01 µM): 106%
viability, T/C [17]: 101%
viability, T/C [18]: 82.2%
viability, T/C [19]: 45%
viability, T/C [20]: 33%

CC1COCCN1c1cc(C2(S(C)(=N)=O)CC2)nc(-c2ccnc3[nH]ccc23)n1 (stereo not given) + Cc1ccccc1N=Nc1ccc(NC(=O)c2ccnn2C)c(C)c1
IC50 (second compound 0.1 µM): 7020 nM
IC50 (second compound 0.316 µM): 7540 nM
IC50 (second compound 1 µM): 9320 nM
IC50 (second compound 3.16 µM): 9730 nM
IC50 (second compound 10 µM): > 10000 nM
viability, T/C [1]: 107%
viability, T/C [2]: 108%
viability, T/C [3]: 105%
viability, T/C [4]: 99.7%
viability, T/C (second compound 0.1 µM, first compound 3.16 µM): 74.8%
viability, T/C (second compound 0.1 µM, first compound 10 µM): 38.9%
viability, T/C [5]: 111%
viability, T/C [6]: 111%
viability, T/C [7]: 108%
viability, T/C [8]: 100%
viability, T/C (second compound 0.316 µM, first compound 3.16 µM): 78.9%
viability, T/C (second compound 0.316 µM, first compound 10 µM): 40.6%
viability, T/C [9]: 114%
viability, T/C [10]: 115%
viability, T/C [11]: 115%
viability, T/C [12]: 105%
viability, T/C (second compound 1 µM, first compound 3.16 µM): 83.3%
viability, T/C (second compound 1 µM, first compound 10 µM): 47.8%
viability, T/C [13]: 111%
viability, T/C [14]: 121%
viability, T/C [15]: 116%
viability, T/C [16]: 106%
viability, T/C (second compound 3.16 µM, first compound 3.16 µM): 85.9%
viability, T/C (second compound 3.16 µM, first compound 10 µM): 49%
viability, T/C [17]: 107%
viability, T/C [18]: 110%
viability, T/C [19]: 111%
viability, T/C [20]: 105%
viability, T/C (second compound 10 µM, first compound 3.16 µM): 85.4%
viability, T/C (second compound 10 µM, first compound 10 µM): 50.8%

O=C(C=Cn1cnc(-c2cc(C(F)(F)F)cc(C(F)(F)F)c2)n1)NNc1cnccn1 + Cc1ccccc1N=Nc1ccc(NC(=O)c2ccnn2C)c(C)c1
IC50 (second compound 0.1 µM): 1750 nM
IC50 (second compound 0.316 µM): 2350 nM
IC50 (second compound 1 µM): 2830 nM
IC50 (second compound 3.16 µM): 2120 nM
IC50 (second compound 10 µM): 1640 nM
viability, T/C (second compound 0.1 µM, first compound 0.00949 µM): 109%
viability, T/C (second compound 0.1 µM, first compound 0.03 µM): 113%
viability, T/C (second compound 0.1 µM, first compound 0.0949 µM): 102%
viability, T/C (second compound 0.1 µM, first compound 0.3 µM): 83.4%
viability, T/C (second compound 0.1 µM, first compound 0.949 µM): 59.2%
viability, T/C (second compound 0.1 µM, first compound 3 µM): 42.2%
viability, T/C (second compound 0.316 µM, first compound 0.00949 µM): 115%
viability, T/C (second compound 0.316 µM, first compound 0.03 µM): 109%
viability, T/C (second compound 0.316 µM, first compound 0.0949 µM): 100%
viability, T/C (second compound 0.316 µM, first compound 0.3 µM): 82.4%
viability, T/C (second compound 0.316 µM, first compound 0.949 µM): 59.6%
viability, T/C (second compound 0.316 µM, first compound 3 µM): 47.5%
viability, T/C (second compound 1 µM, first compound 0.00949 µM): 114%
viability, T/C (second compound 1 µM, first compound 0.03 µM): 116%
viability, T/C (second compound 1 µM, first compound 0.0949 µM): 106%
viability, T/C (second compound 1 µM, first compound 0.3 µM): 90%
viability, T/C (second compound 1 µM, first compound 0.949 µM): 64.6%
viability, T/C (second compound 1 µM, first compound 3 µM): 49.2%
viability, T/C (second compound 3.16 µM, first compound 0.00949 µM): 114%
viability, T/C (second compound 3.16 µM, first compound 0.03 µM): 118%
viability, T/C (second compound 3.16 µM, first compound 0.0949 µM): 113%
viability, T/C (second compound 3.16 µM, first compound 0.3 µM): 90.8%
viability, T/C (second compound 3.16 µM, first compound 0.949 µM): 66.7%
viability, T/C (second compound 3.16 µM, first compound 3 µM): 43%
viability, T/C (second compound 10 µM, first compound 0.00949 µM): 108%
viability, T/C (second compound 10 µM, first compound 0.03 µM): 111%
viability, T/C (second compound 10 µM, first compound 0.0949 µM): 108%
viability, T/C (second compound 10 µM, first compound 0.3 µM): 89.3%
viability, T/C (second compound 10 µM, first compound 0.949 µM): 63%
viability, T/C (second compound 10 µM, first compound 3 µM): 36.4%

From PubChem BioAssay AID1919015 (Molecular Pharmacology Branch, DTP, NCI, 2023)
